Assay [1] has as its system kk mice (insulin-resisting model: obesity and hyperglycemia). Description: Hypoglycemic test in kk mice (insulin sensitivity potentiating action). Format: in vivo. The following applies: oral administration of 10 mg/kg once daily for four days; blood sugar 15 to 18 hours after final administration vs level prior to administration; male kk mice, n=6; p<0.01. How it is done: 1. Hypoglycemic test in kk mice (insulin-resisting model: obesity and hyperglycemia) [insulin sensitivity potentiating action]:
Blood sugar levels under feeding were measured for male kk mice (sugar blood level being 200 mg/dl or more) and they were randomly divided into several groups. The drug to be tested was compulsorily administered per os once daily for four days and the blood sugar level after 15 to 18 hours from the final administration was compared with the level prior to the administration (n=6), whereupon a hypoglycemic rate (%) was calculated. Blood was collected from tail vein of the mouse using a glass capillary (previously treated with heparin), protein was removed therefrom and the amount of glucose (mg/dl) in the supernatant liquid was calorimetrically determined by a glucose oxidase method to obtain the blood sugar level.

The subject of assay [2] is normal rats (male rats of SD-strain). Description: Sugar tolerance test in normal rats (OGTT; insulin secretion promoting action). The class given is in vivo. Conditions: 10 mg/kg orally 30 minutes before glucose 2 g/kg per os; fasted male SD rats, n=4. How it is done:
2. Sugar tolerance test in normal rats [insulin secretion promoting action]:
Male rats of SD-strain (seven weeks age) were fasted for one night and day, randomly divided into several groups and subjected to an oral glucose tolerance test (OGTT) (n=4). The compound to be tested was orally administered at 30 minutes before administration of glucose (2 g/kg per os). Blood was collected by a heparin-treated glass syringe from abdominal artery of the rat under anesthetization with 65 mg/kg of pentbarbital, protein was removed therefrom and the amount of glucose (mg/dl) in the supernatant liquid was calorimetrically determined by a glucose oxidase method to obtain the blood sugar level. Insulin level in blood was determined by measuring the amount of insulin (ng/ml) in plasma by means of a radio-immunoassay (RIA). The result was that, when 10 mg/kg of the compound of Example 4 was administered, insulin secretion increased to an extent of three-fold in terms of AUC ratio and blood sugar level decreased to 90% as compared with that prior to the administration.

Structures can show the parent of a compound that is named as a salt.

Turning to `O=C(Cc1csc(NCc2ccccc2)n1)Nc1ccc(CCNC[C@H](O)COc2ccccc2)cc1` [Example 1, (S)-2-(2-benzylamino-4-thiazolyl)-4'-[2-[(2-hydroxy-3-phenoxypropyl)amino]ethyl]acetanilide], the hypoglycemic rate in assay [1] came to 47%.
The same measure, in the same setting: under `CC(Cc1ccc(NC(=O)Cc2csc(Nc3ccccc3)n2)cc1)NC[C@H](O)COc1ccccc1` (stereo partly drawn) [Example 2-c, (S)-2-(2-anilino-4-thiazol-4-yl)-4'-{2-[(-2-hydroxy-3-phenoxypropyl)amino]propyl}acetanilide] stands 50%.
Take `O=C(Cc1csc(Nc2ccccc2)n1)Nc1ccc(CCNC[C@H](O)COc2ccccc2)cc1` [Example 4, (S)-2-(2-phenylaminothiazol-4-yl)-4'-[2-[(2-hydroxy-3-phenoxyethyl)amino]ethyl]acetanilide dihydrochloride]: the hypoglycemic rate in assay [1] is reported as 56%. In assay [2], the “blood sugar level decreased to, as compared with that prior to the administration” value came out at 90% and the “insulin secretion increase in terms of AUC ratio (plasma insulin, RIA)” value is “three-fold”.
`O=C(Cc1csc(Nc2cccc(F)c2)n1)Nc1ccc(CCNC[C@H](O)COc2ccccc2)cc1` [Example 2-b, (S)-2-[2-(3-fluoroanilino)-4-thiazol-4-yl)-4'-[2-[(2-hydroxy-3-phenoxypropyl)amino]ethyl]acetanilide]: in assay [1], the hypoglycemic rate is reported as 52%.

Values taken from patent publication US6048884A, “Amide derivatives and medicinal compositions thereof” (Yamanouchi Pharmaceutical Co., Ltd., priority 1997, dated 2000).
